{"source": "patent US20140038989A1", "about": "“TETRAHYDROPYRAZOLO [1,5-A] PYRIMIDINE AS ANTI-TUBERCULOSIS COMPOUNDS” (Glaxo Group Limited, priority 2011, published 2014)", "data": [{"system": "Mycobacterium tuberculosis H37Rv", "experiment": "Mycobacterium tuberculosis H37Rv Inhibition Assay (Whole Cell Assay)", "assay_type": "cell-based", "details": "ATCC 25618 / H37Rv, H37Rv strain (ATCC25618), Middlebrook 7H9, six days at 37° C., resazurin fluorescence after 48 hours", "units": {"MIC": "µM"}, "values": [{"compound": "Cc1ccc([C@H]2C[C@@H](C(F)(F)F)n3ncc(C(=O)NCc4ccccc4C(F)(F)F)c3N2)cc1", "note": "(relative stereo) [Example 43, Cis-5-(p-tolyl)-7-(trifluoromethyl)-N-(2-(trifluoromethyl)benzyl)-4,5,6,7-tetrahydropyrazolo[1,5-a]pyrimidine-3-carboxamide]", "MIC": "> 2"}, {"compound": "CCc1ccc([C@H]2C[C@@H](C(F)(F)F)n3ncc(C(=O)NCc4ccco4)c3N2)cc1", "note": "(single isomer, unassigned) [Example 7a]", "MIC": "≤ 1"}, {"compound": "CCc1ccc([C@H]2C[C@@H](C(C)(F)F)n3ncc(C(=O)NCc4ccc(C)cc4)c3N2)cc1", "note": "(relative stereo) [Example 68, Cis-7-(1,1-difluoroethyl)-5-(4-ethylphenyl)-N-(4-methylbenzyl)-4,5,6,7-tetrahydropyrazolo[1,5-a]pyrimidine-3-carboxamide]", "MIC": "≤ 1"}, {"compound": "CCc1ccc([C@H]2C[C@@H](C(F)(F)F)n3ncc(C(=O)NCc4ccc(F)cn4)c3N2)cc1", "note": "(relative stereo) [Example 69, Cis-5-(4-ethylphenyl)-N-((5-fluoropyridin-2-yl)methyl)-7-(trifluoromethyl)-4,5,6,7-tetrahydropyrazolo[1,5-a]pyrimidine-3-carboxamide]", "MIC": "≤ 1"}, {"compound": "Cc1ccc(C2CC(C(F)(F)F)n3ncc(C(=O)NCc4ccc5c(c4)OCO5)c3N2)cc1", "note": "(stereo not shown) [Example 38, N-(benzo[d][1,3]dioxol-5-ylmethyl)-5-(p-tolyl)-7-(trifluoromethyl)-4,5,6,7-tetrahydropyrazolo[1,5-a]pyrimidine-3-carboxamide]", "MIC": "≤ 1"}, {"compound": "COc1cccc(CNC(=O)c2cnn3c2N[C@@H](c2ccc(C)cc2)C[C@H]3C(F)(F)F)c1", "note": "(relative stereo) [Example 27, Cis-N-(3-methoxybenzyl)-5-(p-tolyl)-7-(trifluoromethyl)-4,5,6,7-tetrahydropyrazolo[1,5-a]pyrimidine-3-carboxamide]", "MIC": "1 to 2"}, {"compound": "CCc1ccc([C@H]2C[C@@H](C(F)(F)F)n3ncc(C(=O)NCc4cc(F)cc(F)c4)c3N2)cc1", "note": "(relative stereo) [Example 17, Cis-N-[(3,5-difluorophenyl)methyl]-5-(4-ethylphenyl)-7-(trifluoromethyl)-4,5,6,7-tetrahydropyrazolo[1,5-a]pyrimidine-3-carboxamide]", "MIC": "≤ 1"}, {"compound": "CCc1ccc([C@H]2C[C@@H](C(F)(F)F)n3ncc(C(=O)NCc4ccc(Cl)cc4)c3N2)cc1", "note": "(relative stereo) [Example 67, Cis-N-(4-chlorobenzyl)-5-(4-ethylphenyl)-7-(trifluoromethyl)-4,5,6,7-tetrahydropyrazolo[1,5-a]pyrimidine-3-carboxamide]", "MIC": "≤ 1"}, {"compound": "Cc1ccc([C@H]2C[C@@H](C(F)(F)F)n3ncc(C(=O)NCc4cc(F)cc(F)c4)c3N2)cc1", "note": "(relative stereo) [Example 30, Cis-N-(3,5-difluorobenzyl)-5-(p-tolyl)-7-(trifluoromethyl)-4,5,6,7-tetrahydropyrazolo[1,5-a]pyrimidine-3-carboxamide]", "MIC": "≤ 1"}, {"compound": "Cc1ccc(CNC(=O)c2cnn3c2NC(c2ccc(C)cc2)CC3C(F)F)cc1", "note": "(stereo not shown) [Example 51, 7-(difluoromethyl)-N-(4-methylbenzyl)-5-(p-tolyl)-4,5,6,7-tetrahydropyrazolo[1,5-a]pyrimidine-3-carboxamide]", "MIC": "> 2"}, {"compound": "CCc1ccc([C@H]2C[C@@H](C(F)F)n3ncc(C(=O)NCc4ccc(OC)cc4)c3N2)cc1", "note": "(relative stereo) [Example 32, Cis-7-(difluoromethyl)-5-(4-ethylphenyl)-N-(4-methoxybenzyl)-4,5,6,7-tetrahydropyrazolo[1,5-a]pyrimidine-3-carboxamide]", "MIC": "≤ 1"}, {"compound": "CCc1ccc([C@H]2C[C@@H](C(F)(F)F)n3ncc(C(=O)NCc4ccc(OC)cc4OC)c3N2)cc1", "note": "(relative stereo) [Example 46, Cis-N-(2,4-dimethoxybenzyl)-5-(4-ethylphenyl)-7-(trifluoromethyl)-4,5,6,7-tetrahydropyrazolo[1,5-a]pyrimidine-3-carboxamide]", "MIC": "> 2"}, {"compound": "CCc1ccc([C@H]2C[C@@H](C(F)(F)F)n3ncc(C(=O)NCc4ccc(N(C)C)cc4)c3N2)cc1", "note": "(relative stereo) [Example 11, Cis-N-(4-(dimethylamino)benzyl)-5-(4-ethylphenyl)-7-(trifluoromethyl)-4,5,6,7-tetrahydropyrazolo[1,5-a]pyrimidine-3-carboxamide]", "MIC": "1 to 2"}, {"compound": "COc1ccc(CNC(=O)c2cnn3c2NC(c2ccc(C)cc2)CC3C(F)(F)F)cc1", "note": "(stereo not shown) [Example 39, N-(4-methoxybenzyl)-5-(p-tolyl)-7-(trifluoromethyl)-4,5,6,7-tetrahydropyrazolo[1,5-a]pyrimidine-3-carboxamide]", "MIC": "≤ 1"}, {"compound": "O=C(NCc1ccco1)c1cnn2c1NC(c1ccc(Br)cc1)CC2C(F)(F)F", "note": "(stereo not shown) [57′, 5-(4-bromophenyl)-N-(furan-2-ylmethyl)-7-(trifluoromethyl)-4,5,6,7-tetrahydropyrazolo[1,5-a]pyrimidine-3-carboxamide, reference compound]", "MIC": "> 2"}, {"compound": "COc1ccc(C2CC(C(F)(F)F)n3ncc(C(=O)NCc4ccccc4)c3N2)cc1", "note": "(stereo not shown) [Example 53, N-benzyl-5-(4-methoxyphenyl)-7-(trifluoromethyl)-4,5,6,7-tetrahydropyrazolo[1,5-a]pyrimidine-3-carboxamide]", "MIC": "> 2"}, {"compound": "CCc1ccc([C@H]2C[C@@H](C(F)(F)F)n3ncc(C(=O)NCc4ccoc4)c3N2)cc1", "note": "(relative stereo) [Example 12, Cis-5-(4-ethylphenyl)-N-(furan-3-ylmethyl)-7-(trifluoromethyl)-4,5,6,7-tetrahydropyrazolo[1,5-a]pyrimidine-3-carboxamide]", "MIC": "≤ 1"}, {"compound": "CCc1ccc([C@H]2C[C@@H](C(F)(F)F)n3ncc(C(=O)NCc4ccccc4C(F)(F)F)c3N2)cc1", "note": "(relative stereo) [Example 44, Cis-5-(4-ethylphenyl)-7-(trifluoromethyl)-N-(2-(trifluoromethyl)benzyl)-4,5,6,7-tetrahydropyrazolo[1,5-a]pyrimidine-3-carboxamide]", "MIC": "> 2"}, {"compound": "CCc1ccc([C@H]2C[C@@H](C(F)(F)F)n3ncc(C(=O)NCc4ccc5c(c4)OCCO5)c3N2)cc1", "note": "(relative stereo) [Example 18, Cis-N-(2,3-dihydro-1,4-benzodioxin-6-ylmethyl)-5-(4-ethylphenyl)-7-(trifluoromethyl)-4,5,6,7-tetrahydropyrazolo[1,5-a]pyrimidine-3-carboxamide]", "MIC": "1 to 2"}, {"compound": "Cc1ccc([C@H]2C[C@@H](C(F)(F)F)n3ncc(C(=O)NCc4ccco4)c3N2)cc1", "note": "(relative stereo) [56′, Cis-N-(furan-2-ylmethyl)-5-(p-tolyl)-7-(trifluoromethyl)-4,5,6,7-tetrahydropyrazolo[1,5-a]pyrimidine-3-carboxamide, reference compound]", "MIC": "> 2"}, {"compound": "COc1ccc(CNC(=O)c2cnn3c2N[C@@H](c2ccc(Br)cc2)C[C@H]3C(F)(F)F)cc1", "note": "(relative stereo) [Example 42, Cis-5-(4-bromophenyl)-N-(4-methoxybenzyl)-7-(trifluoromethyl)-4,5,6,7-tetrahydropyrazolo[1,5-a]pyrimidine-3-carboxamide]", "MIC": "> 2"}, {"compound": "CCc1ccc([C@H]2C[C@@H](C(F)(F)F)n3ncc(C(=O)NCC4CCCCC4)c3N2)cc1", "note": "(relative stereo) [Example 5, Cis-N-(cyclohexylmethyl)-5-(4-ethylphenyl)-7-(trifluoromethyl)-4,5,6,7-tetrahydropyrazolo[1,5-a]pyrimidine-3-carboxamide]", "MIC": "≤ 1"}, {"compound": "CCc1ccc([C@H]2C[C@@H](C(C)(C)C)n3ncc(C(=O)NCc4ccc(OC)cc4)c3N2)cc1", "note": "(relative stereo) [Example 35, Cis-7-(tert-butyl)-5-(4-ethylphenyl)-N-(4-methoxybenzyl)-4,5,6,7-tetrahydropyrazolo[1,5-a]pyrimidine-3-carboxamide]", "MIC": "≤ 1"}, {"compound": "CCc1ccc([C@@H]2C[C@H](C(F)(F)F)n3ncc(C(=O)NCc4ccc(OC)cc4)c3N2)cc1", "note": "(single isomer, unassigned) [Example 1b]", "MIC": "> 2"}, {"compound": "Cc1ccc([C@H]2C[C@@H](C(F)(F)F)n3ncc(C(=O)NCc4ccc(C)c(Cl)c4)c3N2)cc1", "note": "(relative stereo) [Example 29, Cis-N-(3-chloro-4-methylbenzyl)-5-(p-tolyl)-7-(trifluoromethyl)-4,5,6,7-tetrahydropyrazolo[1,5-a]pyrimidine-3-carboxamide]", "MIC": "1 to 2"}]}]}
